Reference: ChEMBL document CHEMBL1201862, “PubChem BioAssay data set” (2004)
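A five-concentration, 48-hour dose response in 96-well plates underlies each endpoint, interpolated linearly between surrounding concentrations. Abbreviation: GI50, concentration required for 50% inhibition of growth.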 Active and inactive are the calls of the source. Cut-off read from the data, not from the text of the source: active = GI50 up to about 1.1 µM and inactive = higher.

Assays:
Assay in all cases: growth of human tumour cells (NCI), 48 h
[1] = tested on: HCC 2998
[2] = tested on: HT-29
[3] = tested on: BT-549
[4] = tested on: SR
[5] = tested on: NCI-H226
[6] = tested on: Malme-3M
[7] = tested on: MDA-N
[8] = tested on: SF-268
[9] = tested on: SK-MEL-2
[10] = tested on: CCRF-CEM
[11] = tested on: K562
[12] = tested on: IGROV-1
[13] = tested on: HCT-116
[14] = tested on: SW-620
[15] = tested on: COLO 205
[16] = tested on: A498
[17] = tested on: SK-MEL-28
[18] = tested on: CAKI-1
[19] = tested on: MCF7
[20] = tested on: PC-3

Compound | GI50 [1] | GI50 [2] | GI50 [3] | GI50 [4] | GI50 [5] | GI50 [6] | GI50 [7] | GI50 [8] | GI50 [9] | GI50 [10] | GI50 [11] | GI50 [12] | GI50 [13] | GI50 [14] | GI50 [15] | GI50 [16] | GI50 [17] | GI50 [18] | GI50 [19] | GI50 [20]
CCOC(=O)c1cc(-c2ccc(OC)cc2)c([N+](=O)[O-])n1C | > 10 µM (inactive) | > 10 µM (inactive) | > 10 µM (inactive) | 9.1 µM (inactive) | > 10 µM (inactive) | > 10 µM (inactive) | 8.91 µM (inactive) | > 10 µM (inactive) | > 10 µM (inactive) | > 10 µM (inactive) | 6.84 µM (inactive) | > 10 µM (inactive) | > 10 µM (inactive) | – | – | – | – | – | – | –
[O-][n+]1onc2c1CCC(=N\O)/C2=N/Nc1ccccc1 | – | > 100 µM (inactive) | – | > 100 µM (inactive) | > 100 µM (inactive) | > 100 µM (inactive) | > 100 µM (inactive) | > 100 µM (inactive) | > 100 µM (inactive) | > 100 µM (inactive) | > 100 µM (inactive) | > 100 µM (inactive) | > 100 µM (inactive) | > 100 µM (inactive) | > 100 µM (inactive) | > 100 µM (inactive) | > 100 µM (inactive) | > 100 µM (inactive) | > 100 µM (inactive) | > 100 µM (inactive)
c1ccc(C[N+]23C(CC[C@H]2c2ccccc2)CC[C@H]3c2ccccc2)cc1 (stereo not given in full) | – | 17.9 µM (inactive) | – | 21.4 µM (inactive) | 22.1 µM (inactive) | 18.2 µM (inactive) | 21.2 µM (inactive) | 43.5 µM (inactive) | 29.9 µM (inactive) | 27.4 µM (inactive) | 9.38 µM (inactive) | 21.6 µM (inactive) | 28.8 µM (inactive) | 43.4 µM (inactive) | 11.2 µM (inactive) | > 100 µM (inactive) | 34.6 µM (inactive) | > 100 µM (inactive) | 24.4 µM (inactive) | 26.7 µM (inactive)
O=C(O)CCC1NC(/C(=C/c2ccccc2O)NC(=O)c2ccccc2)OC1=O (stereo not given) | > 100 µM (inactive) | > 100 µM (inactive) | 72.6 µM (inactive) | – | 72.3 µM (inactive) | > 100 µM (inactive) | – | 61.5 µM (inactive) | > 100 µM (inactive) | > 100 µM (inactive) | > 100 µM (inactive) | 30.5 µM (inactive) | 67.3 µM (inactive) | > 100 µM (inactive) | > 100 µM (inactive) | > 100 µM (inactive) | > 100 µM (inactive) | > 100 µM (inactive) | 3.39 µM (inactive) | > 100 µM (inactive)
Cc1cccc(/N=N/c2ccc(/N=N/c3c(O)ccc4ccccc34)cc2C)c1 | > 100 µM (inactive) | > 100 µM (inactive) | > 100 µM (inactive) | 21.4 µM (inactive) | > 100 µM (inactive) | 2 µM (inactive) | – | > 100 µM (inactive) | > 100 µM (inactive) | > 100 µM (inactive) | > 100 µM (inactive) | > 100 µM (inactive) | > 100 µM (inactive) | > 100 µM (inactive) | > 100 µM (inactive) | – | > 100 µM (inactive) | 40.2 µM (inactive) | > 100 µM (inactive) | 88.3 µM (inactive)
CC(C)OC(=O)NNc1cccc(Cl)c1 | > 100 µM (inactive) | > 100 µM (inactive) | – | > 100 µM (inactive) | > 100 µM (inactive) | > 100 µM (inactive) | > 100 µM (inactive) | > 100 µM (inactive) | 19.4 µM (inactive) | > 100 µM (inactive) | 47.3 µM (inactive) | – | > 100 µM (inactive) | > 100 µM (inactive) | > 100 µM (inactive) | > 100 µM (inactive) | > 100 µM (inactive) | 61.7 µM (inactive) | > 100 µM (inactive) | > 100 µM (inactive)
CCOC(=O)[C@@H]1ON2O[C@@H](OC3CCCC3(c3ccccc3)c3ccccc3)C[C@H]3OC(=O)[C@@H]1C32 (stereo not given in full) | 41.8 µM (inactive) | 15.2 µM (inactive) | – | 23.1 µM (inactive) | 56.6 µM (inactive) | – | 20.7 µM (inactive) | 28.7 µM (inactive) | – | 27.5 µM (inactive) | – | 33.8 µM (inactive) | 33.8 µM (inactive) | 24.7 µM (inactive) | 38.1 µM (inactive) | > 100 µM (inactive) | – | 17.2 µM (inactive) | 20.8 µM (inactive) | –
NNC(=O)c1cccc2c1Oc1ccccc1S2 | > 100 µM (inactive) | > 100 µM (inactive) | 97.3 µM (inactive) | > 100 µM (inactive) | 1.23 µM (inactive) | – | – | 76.2 µM (inactive) | > 100 µM (inactive) | 63.1 µM (inactive) | > 100 µM (inactive) | > 100 µM (inactive) | > 100 µM (inactive) | > 100 µM (inactive) | > 100 µM (inactive) | 18.2 µM (inactive) | > 100 µM (inactive) | > 100 µM (inactive) | > 100 µM (inactive) | > 100 µM (inactive)
Cc1ccc([N+](=O)[O-])c2c(NCCC[N+](C)(C)[O-])c3ccccc3nc12 | 0.841 µM (active) | 1.48 µM (inactive) | 1.5 µM (inactive) | 0.218 µM (active) | 2.24 µM (inactive) | 1.22 µM (inactive) | – | 2.47 µM (inactive) | 0.773 µM (active) | 2.07 µM (inactive) | 1.52 µM (inactive) | 1.19 µM (inactive) | 1.52 µM (inactive) | 2.18 µM (inactive) | 1.02 µM (active) | 1.89 µM (inactive) | 3.68 µM (inactive) | 21 µM (inactive) | 0.401 µM (active) | 0.755 µM (active)
CCCCCCCCCC(=O)NC(CCC(=O)N(CCNC(=O)c1nc(-c2ccccc2)oc1-c1ccccc1)Cc1ccccc1)C(=O)O (stereo not given) | – | 18 µM (inactive) | 19.3 µM (inactive) | – | 23.8 µM (inactive) | 16.4 µM (inactive) | 18.4 µM (inactive) | 16.5 µM (inactive) | – | – | – | 19.5 µM (inactive) | 17.7 µM (inactive) | 23.3 µM (inactive) | 19.6 µM (inactive) | 21.2 µM (inactive) | 22.3 µM (inactive) | 16.7 µM (inactive) | – | –
CC1(C)CC2=NOS3=C2C(=NO3)C1c1ccccn1 (stereo not given) | > 100 µM (inactive) | 56.8 µM (inactive) | – | 39.3 µM (inactive) | – | 46.9 µM (inactive) | 30.9 µM (inactive) | > 100 µM (inactive) | > 100 µM (inactive) | 29 µM (inactive) | 24 µM (inactive) | 29.6 µM (inactive) | 48.8 µM (inactive) | 69.5 µM (inactive) | 31.2 µM (inactive) | > 100 µM (inactive) | > 100 µM (inactive) | > 100 µM (inactive) | > 100 µM (inactive) | > 100 µM (inactive)
C[C@H]1C=C2C(=O)O[C@H]3CC[C@@H](C1)[C@@]23O | 13.8 µM (inactive) | 3.97 µM (inactive) | – | 0.233 µM (active) | 12.5 µM (inactive) | 7.03 µM (inactive) | – | 3.13 µM (inactive) | 2.71 µM (inactive) | 2.01 µM (inactive) | 2.37 µM (inactive) | 6.03 µM (inactive) | 2.75 µM (inactive) | 3.28 µM (inactive) | 3.26 µM (inactive) | 10.6 µM (inactive) | 4.07 µM (inactive) | 3.72 µM (inactive) | – | –
CC(=O)OCSc1ncnc2c1ncn2CN1CCOCC1 | 6.46 µM (inactive) | 13.9 µM (inactive) | – | 6.14 µM (inactive) | > 100 µM (inactive) | 24.9 µM (inactive) | – | 31.3 µM (inactive) | > 100 µM (inactive) | 1.98 µM (inactive) | 0.841 µM (active) | 52.5 µM (inactive) | 14.4 µM (inactive) | 28.8 µM (inactive) | 18.8 µM (inactive) | > 100 µM (inactive) | > 100 µM (inactive) | 6.37 µM (inactive) | – | –
CC(C)[Si](OC12CCC(CC1O)CC2CO)(C(C)C)C(C)C (stereo not given) | – | 15.5 µM (inactive) | – | 7.55 µM (inactive) | 17.3 µM (inactive) | – | – | 14.6 µM (inactive) | 15.8 µM (inactive) | 13.4 µM (inactive) | 14.7 µM (inactive) | – | 8 µM (inactive) | 21.1 µM (inactive) | 18 µM (inactive) | 16.7 µM (inactive) | 20.4 µM (inactive) | 18.7 µM (inactive) | 12 µM (inactive) | 11.8 µM (inactive)
O=C1c2cccc3cc([N+](=O)[O-])cc(c23)C(=O)N1CCNCCNCCNCCN1C(=O)c2cccc3cc([N+](=O)[O-])cc(c23)C1=O | 0.01 µM (active) | < 0.001 µM (active) | – | 0.01 µM (active) | 0.124 µM (active) | 0.111 µM (active) | – | 0.00564 µM (active) | 0.00995 µM (active) | 0.00122 µM (active) | < 0.001 µM (active) | 0.01 µM (active) | < 0.001 µM (active) | < 0.001 µM (active) | 0.01 µM (active) | 0.0128 µM (active) | 0.0311 µM (active) | < 0.001 µM (active) | – | –
Cc1ccc(-n2cc(-c3ccc(Cl)cc3)c3c(NN)ncnc32)cc1 | 2.89 µM (inactive) | 4.48 µM (inactive) | – | 3.41 µM (inactive) | 2.38 µM (inactive) | 3.1 µM (inactive) | 8.83 µM (inactive) | 2.64 µM (inactive) | 15.1 µM (inactive) | 0.566 µM (active) | 2.88 µM (inactive) | 1.85 µM (inactive) | 2.4 µM (inactive) | 6.07 µM (inactive) | 1.72 µM (inactive) | – | 3.66 µM (inactive) | 4.33 µM (inactive) | – | 5.55 µM (inactive)
